Assay results taken from article PMC10138577, “Prenylated Flavonoids with Selective Toxicity against Human Cancers” (International Journal of Molecular Sciences, 2023).

Experiments:
Format in all cases: cell-based
[1] = test system: SK-BR-3 human breast adenocarcinoma cells; test: In vitro antiproliferative assay (SRB), SK-BR-3; settings: for IC50: Homo sapiens, SK-BR-3, 72 h exposure, SRB, mean ± SD; for Calculated selectivity index SIB: IC50 BALB/3T3/IC50 SK-BR-3; for Calculated selectivity index SIA: IC50 HLMEC/IC50 SK-BR-3
Text: (§1) The following established in vitro cell lines were applied: human breast adenocarcinoma (MCF-7 and SK-BR-3), human breast ductal carcinoma (T47D), human prostate adenocarcinoma (PC-3), human prostate carcinoma (Du145), human colorectal adenocarcinoma (HT-29 and LoVo), doxorubicin-resistant human colorectal adenocarcinoma (LoVo/Dx), human myelomonocytic leukemia (MV-4-11), human lung adenocarcinoma (A549), normal murine embryonic fibroblasts (BALB/3T3) and human lung microvascular endothelial (HLMEC). All the cell lines were obtained from the American Type Culture Collection (Rockville, MD, USA) except for LoVo and LoVo/DX, which were received from the Technical University of Gdańsk, Poland, courtesy of Prof. E. Borowski. All the cell lines were maintained in the Institute of Immunology and Experimental Therapy, Wroclaw, Poland. The cells were cultured in the following media: DMEM medium (BALB/3T3), Eagle medium (MCF-7, SK-BR-3, Du145), RPMI medium (HLMEC, MV-4-11) or RPMI 1640 + Opti-MEM (1:1) medium (A549, T47D, LoVo, LoVo/Dx, PC-3, HT-29). The DMEM medium was supplemented with 2 mM L-glutamine and 10% fetal bovine serum. The Eagle medium was supplemented with 4 mM L-glutamine, 10% fetal bovine serum, 1 mM sodium pyruvate for Du145 cells or 2 mM L-glutamine, 1% amino acids and 0.8 mg L^−1 of insulin for MCF-7 and SK-BR-3. The RPMI medium was supplemented with 2 mM L-glutamine, 1 mM sodium pyruvate and 10% fetal bovine serum. The RPMI 1640 + Opti-MEM (1:1) medium was supplemented with 2 mM L-glutamine, 5% fetal bovine serum (PC-3, A549) and 0.8 mg L^−1 insulin (T47D) or 1 mM sodium pyruvate (HT-29, LoVo, LoVoDx) and 0.1 ug/mL doxorubicin (LoVo/Dx). The media contained antibiotics: 100 µg mL^−1 streptomycin and 100 U mL^−1 penicillin. All the cell lines were incubated at 37 °C in a humid atmosphere saturated with 5% CO2.
(§2) The details of this technique were described by Skehan et al.. After 72 h of incubation with the tested compounds, the cells were fixed in situ by gently adding cold 50% trichloroacetic acid—TCA (50 µL per well). The plates were incubated at 4 °C for 1 h and then washed five times with tap water and air-dried. Next, the cellular material fixed with TCA was stained by adding 50 µL of 0.4% sulforhodamine B dissolved in 1% acetic acid to each well and incubating the wells for 30 min at room temperature. The unbound dye was removed by washing the plates five times with 1% acetic acid, whereas the stain bound to the cells was extracted with 150 µL of 10 mM unbuffered Tris base for determination of the optical density at a 540 nm wavelength in a computer-interfaced, 96-well microtiter plate reader–Multiskan FC photometer (Thermo Scientific, Waltham, MA, USA). The background optical density was measured in the wells filled with culture medium, without the cells.
(§3) Twenty-four hours before incubation with the tested compounds, the cells were seeded in 96-well plates (Sarstedt, Nümbrecht, Germany) at a density of 10^4 cells per well (10^3 cells per well for HLMEC) in 100 µL of culture medium. The analysis of the antiproliferative activity of the compounds was performed using sulforhothamine B (SRB) (for all the adherent cells) or 3-(4,5-dimethylthiazol-2-yl)-2,5-diphenyl tetrazolium bromide (MTT) (for the leukemia cells—MV-4-11). The details of this technique have been previously described by Skehan et al. and Antoszak et al.. An assay was performed after 72 h of exposure at varying concentrations (from 0.1 to 100 µg mL^−1) of xanthohumol (1), aurone (2) and the reference drug cisplatin. Each compound at each concentration was tested in a single experiment, which was repeated at least 3 times. […] The results were calculated as the IC50 (μM) (half maximal inhibitory concentration), i.e., the concentration of the tested agent that inhibits the proliferation of the cancer cell population by half. […]

[2] = test system: T47D human breast ductal carcinoma cells; test: In vitro antiproliferative assay (SRB), T47D; settings: for IC50: Homo sapiens, T47D, 72 h exposure, SRB, mean ± SD; for Calculated selectivity index SIB: IC50 BALB/3T3/IC50 T47D; for Calculated selectivity index SIA: IC50 HLMEC/IC50 T47D
Text: as §1, §2, §3

[3] = test system: LoVo human colorectal adenocarcinoma cells; test: In vitro antiproliferative assay (SRB), LoVo; settings: for IC50: Homo sapiens, LoVo, 72 h exposure, SRB, mean ± SD; for Calculated selectivity index SIB: IC50 BALB/3T3/IC50 LoVo; for Calculated selectivity index SIA: IC50 HLMEC/IC50 LoVo
Text: as §1, §2, §3

[4] = test system: MV-4-11 human myelomonocytic leukemia cells; test: In vitro antiproliferative assay (MTT), MV-4-11; settings: for IC50: Homo sapiens, MV4-11, MV-4-11, 72 h exposure, MTT, mean ± SD; for Calculated selectivity index SIB: IC50 BALB/3T3/IC50 MV-4-11; for Calculated selectivity index SIA: IC50 HLMEC/IC50 MV-4-11
Text: as §1
The details of this technique were described by Antoszczak et al.. The proliferation inhibition of human myelomonocytic leukemia (MV-4-11) by the tested compounds was measured using the MTT assay. Thus, 20 µL of 3-(4,5-dimethylthiazol-2-yl)-2,5-diphenyl tetrazolium bromide solution was added to each well. Then, the plates were incubated for 4 h in a cell incubator to allow the cells to metabolize the yellow MTT to blue formazan. Next, 80 µL of lysing mixture (consisting of 67.5 g sodium dodecyl sulfate, 225 mL dimethylformamide and 275 mL distilled water) was added to each well. The plates were incubated for 24 h for the formazan crystals to be released from the cells and dissolved, and then the absorbance of each well was read on a 96-well microtiter plate reader (Multiskan FC photometer (Thermo Scientific)) at a 570 nm wavelength.
Twenty-four hours before incubation with the tested compounds, the cells were seeded in 96-well plates (Sarstedt, Nümbrecht, Germany) at a density of 10^4 cells per well (10^3 cells per well for HLMEC) in 100 µL of culture medium. The analysis of the antiproliferative activity of the compounds was performed using sulforhothamine B (SRB) (for all the adherent cells) or 3-(4,5-dimethylthiazol-2-yl)-2,5-diphenyl tetrazolium bromide (MTT) (for the leukemia cells—MV-4-11). The details of this technique have been previously described by Skehan et al. and Antoszak et al.. An assay was performed after 72 h of exposure at varying concentrations (from 0.1 to 100 µg mL^−1) of xanthohumol (1), aurone (2) and the reference drug cisplatin. Each compound at each concentration was tested in a single experiment, which was repeated at least 3 times. […] The results were calculated as the IC50 (μM) (half maximal inhibitory concentration), i.e., the concentration of the tested agent that inhibits the proliferation of the cancer cell population by half. The IC50 values and the mean values ± SD calculated for each experiment separately using GraphPad Prism software (GraphPad Software 9.1.0, San Diego, CA, USA) are presented in Table S1 in the Supplementary Materials.

Compound | IC50 [1] | Calculated selectivity index SIB [1] | Calculated selectivity index SIA [1] | IC50 [2] | Calculated selectivity index SIB [2] | Calculated selectivity index SIA [2] | IC50 [3] | Calculated selectivity index SIB [3] | Calculated selectivity index SIA [3] | IC50 [4] | Calculated selectivity index SIB [4] | Calculated selectivity index SIA [4]
COc1cc(O)c(CC=C(C)C)c(O)c1C(=O)/C=C/c1ccc(O)cc1 [compound 1, 3′-[3″,3″-dimethylallyl]-2′,4′,4-trihydroxy-6′-methoxychalcone] | 12.6 ± 2.28 µM | 1.56 | 2.89 | 8.27 ± 1.23 µM | 2.37 | 4.39 | 5.53 ± 1.64 µM | 3.55 | 6.56 | 8.07 ± 0.52 µM | 2.43 | 4.50
COc1cc(O)c(CC=C(C)C)c2c1C(=O)/C(=C/c1ccc(O)cc1)O2 [compound 2, (Z)-6,4′-dihydroxy-4-methoxy-7-prenylaurone] | 11.3 ± 0.17 µM | 3.93 | 4.67 | 8.09 ± 2.21 µM | 5.50 | 6.53 | 8.85 ± 4.85 µM | 5.02 | 5.97 | 7.45 ± 0.87 µM | 5.97 | 7.09
